Where a name gives a salt, the structure may show the parent alone.
Columns and labels:
quiescent TG1 GSCs = conditions: 50 μM
Experimental: (§1) Proliferating or quiescent TG1 GSCs were seeded (30 000 and 40 000 viable cells/well, respectively) into 96-well opaque bottom plates (Greiner) with the Biomek FX robot (Beckman Coulter). Each compound from the Prestwick Library was then added (final concentration: 50 μM; 1% DMSO). Each molecule was tested once. Negative control wells (12/96 per assay plate) contained cells treated with 1% DMSO (final concentration) and positive control wells (4/96 per assay plate) contained cells treated with the fungal toxin ophiobolin A (Sigma Aldrich) at 50 μM with 1% DMSO. […] Luminescence in each well was measured with the Victor3 plate reader (PerkinElmer).
(§2) Relative ATP levels in each well were determined by calculating the percentage of luminescent signal in the well with respect to the average signal measured in negative control wells.
(§3) Primary screen hits were further tested in duplicate, at two concentrations (50 and 5 μM) on proliferating and quiescent TG1 GSCs. Cell plating and treatment with compounds were as for the primary screen. Hit selection/confirmation criteria for quiescent cells were as described above.

proliferating TG1 GSCs = conditions: 50 μM; for Activity on proliferating TG1 GSCs (hit compounds reducing ATP levels): primary screen, 24 h
Experimental: as §1, §2, §3

Compound | Activity on quiescent TG1 GSCs (hit compounds reducing ATP levels) (quiescent TG1 GSCs; primary screen, 24 h) | Activity on proliferating TG1 GSCs (hit compounds reducing ATP levels) (proliferating TG1 GSCs) | Activity on quiescent TG1 CSCs (hit compounds increasing ATP levels) (quiescent TG1 GSCs; primary screen, 24 h) | cytotoxicity (positive control) (quiescent TG1 GSCs; 1% DMSO, quiescent GSCs) | cytotoxicity (positive control) (proliferating TG1 GSCs; 1% DMSO, proliferating GSCs)
CCCCC(CC)CNC(=N)NC(=N)NCCCCCCNC(=N)NC(=N)NCC(CC)CCCC (stereo not shown) [Alexidine dihydrochloride] | yes | yes | – | – | –
Clc1ccc(C(Cn2ccnc2)OCc2c(Cl)cccc2Cl)c(Cl)c1 (stereo not shown) [Isoconazole] | yes | yes | – | – | –
CC1=CC(=O)c2ccccc2C1=O [Menadione] | yes | yes | – | – | –
OC(c1cc(C(F)(F)F)nc2c(C(F)(F)F)cccc12)C1CCCCN1 (stereo not shown) [Mefloquine hydrochloride] | yes | yes | – | – | –
CC/C(=C(/CC)c1ccc(O)cc1)c1ccc(O)cc1 [Diethylstilbestrol] | yes | yes | – | – | –
CCOC(=O)C1=C(C)NC(C)=C(C(=O)OC)C1c1cccc([N+](=O)[O-])c1 (stereo not shown) [Nitrendipine] | – | yes | yes | – | –
Avermectin B1 | yes | yes | – | – | –
CC(=O)O[C@H]1C[C@H](O[C@H]2[C@@H](O)C[C@H](O[C@H]3[C@@H](O)C[C@H](O[C@H]4CC[C@@]5(C)[C@H](CC[C@@H]6[C@@H]5C[C@@H](O)[C@]5(C)[C@@H](C7=CC(=O)OC7)CC[C@]65O)C4)O[C@@H]3C)O[C@@H]2C)O[C@H](C)[C@H]1O[C@@H]1O[C@H](CO)[C@@H](O)[C@H](O)[C@H]1O [Lanatoside C] | yes | yes | – | – | –
COc1cc2nc(N3CCN(C(=O)c4ccco4)CC3)nc(N)c2cc1OC [Prazosin hydrochloride] | yes | yes | – | – | –
C[n+]1cc2c3c(ccc2c2ccc4cc5c(cc4c21)OCO5)OCO3 [Sanguinarine] | yes | yes | – | – | –
C[C@H]1CC[C@]2(NC1)O[C@H]1C[C@H]3[C@@H]4CC[C@H]5C[C@@H](O[C@@H]6O[C@H](CO)[C@H](O[C@@H]7O[C@H](CO)[C@@H](O)[C@H](O[C@@H]8OC[C@@H](O)[C@H](O)[C@H]8O)[C@H]7O[C@@H]7O[C@H](CO)[C@@H](O)[C@H](O)[C@H]7O)[C@H](O)[C@H]6O)CC[C@]5(C)[C@H]4CC[C@]3(C)[C@H]1[C@@H]2C [Tomatine] | yes | yes | – | – | –
CCCCCCCCCCCCCCCC[N+](C)(C)CCN(Cc1ccc(OC)cc1)c1ncccn1 [Thonzonium bromide] | yes | yes | – | – | –
CC[C@H]1CN2CCc3cc(OC)c(OC)cc3[C@@H]2C[C@@H]1C[C@H]1NCCc2cc(O)c(OC)cc21.Cl.Cl.O.O.O.O.O.O.O [Cephaeline dihydrochloride heptahydrate] | yes | yes | – | – | –
COc1cc(NC(C)CCCN)c2ncccc2c1 (stereo not shown) [Primaquine diphosphate] | yes | yes | – | – | –
CCN(CC)CCOc1ccc(C(=C(Cl)c2ccccc2)c2ccccc2)cc1.O=C(O)CC(O)(CC(=O)O)C(=O)O [Clomiphene citrate (Z, E)] | yes | yes | – | – | –
Clc1ccc(CCC(Cn2ccnc2)Sc2c(Cl)cccc2Cl)cc1 (stereo not shown) [Butoconazole nitrate] | yes | yes | – | – | –
Cc1cccc(CN2CCN(C(c3ccccc3)c3ccc(Cl)cc3)CC2)c1.Cl.Cl (stereo not shown) [Meclozine dihydrochloride] | yes | yes | – | – | –
O=C(N/N=C/c1ccc([N+](=O)[O-])o1)c1ccc(O)cc1 [Nitrofuroxazide] | yes | yes | – | – | –
Clc1ccc(C(Cn2ccnc2)OCc2csc3c(Cl)cccc23)c(Cl)c1 (stereo not shown) [Sertaconazole nitrate] | yes | yes | – | – | –
Clc1ccc(COC(Cn2ccnc2)c2ccc(Cl)cc2Cl)c(Cl)c1 (stereo not shown) [Miconazole] | yes | yes | – | – | –
CN[C@H]1CC[C@@H](c2ccc(Cl)c(Cl)c2)c2ccccc21 [Sertraline] | yes | yes | – | – | –
CC(C)=C[C@H]1C[C@H](C)[C@]2(CC[C@]3(C)C[C@H]4[C@H](C(=O)C[C@@]4(C)O)/C(C=O)=C\C[C@H]32)O1 [Ophiobolin A] | – | – | – | cytotoxic | cytotoxic
CC[C@@H](C(=O)[C@@H](C)[C@@H](O)[C@H](C)CCc1ccc(C)c(O)c1C(=O)[O-])[C@H]1O[C@](CC)([C@H]2CC[C@](O)(CC)[C@H](C)O2)C[C@@H]1C.[Na+] [Lasalocid sodium salt] | yes | yes | – | – | –
CCOC1O[C@H]([C@@H](COCc2ccccc2)OCc2ccccc2)[C@H](OCc2ccccc2)[C@H]1O (stereo partly shown) [Tribenoside] | yes | yes | – | – | –
Clc1ccccc1C(c1ccccc1)(c1ccccc1)n1ccnc1 [Clotrimazol] | yes | yes | – | – | –
CC/C(=C(\c1ccccc1)c1ccc(OCCN(C)C)cc1)c1ccccc1 [Tamoxifen citrate] | yes | yes | – | – | –
CCCCc1oc2ccccc2c1C(=O)c1cc(I)c(OCCN(CC)CC)c(I)c1 [Amiodarone hydrochloride] | yes | yes | – | – | –
O[C@H]1[C@H]2c3cc4c(cc3CN3CCC(=C[C@@H]1O)[C@H]23)OCO4 [Lycorine hydrochloride] | yes | yes | – | – | –
Cl.Cl.Fc1ccc(C(OCCN2CCN(CCCc3ccccc3)CC2)c2ccc(F)cc2)cc1 [GBR 12909 dihydrochloride] | yes | yes | – | – | –
